What was measured:
[1] = Ratio of drug level in brain to plasma in male Wistar rat; format: ADME; conditions: read-out: BPR
[2] = system: Plasma; test: Plasma concentration in male Sprague-Dawley rat at 0.03 mg/ml, po; format: ADME
[3] = Oral bioavailability in fasted cynomolgus monkey at 0.3 mg/kg; format: ADME, organism-based, Macaca fascicularis; conditions: in vivo
[4] = Ratio of drug level in CSF to plasma in male Wistar rat; format: ADME
[5] = Volume of distribution at steady state cynomolgus monkey at 1 mg/kg, iv; format: ADME, organism-based, Macaca fascicularis; parameters: dose 1 mg/kg, route intravenous; conditions: in vivo, read-out: Vdss
[6] = (§1) Volume of distribution at steady state in male Wistar rat at 1 mg/kg, iv; format: ADME, organism-based; parameters: dose 1 mg/kg, route intravenous; conditions: male, Wistar, in vivo, read-out: Vdss
[7] = AUC (infinity) in fasted cynomolgus monkey at 0.3 mg/kg, po; format: ADME, organism-based, Macaca fascicularis; parameters: time infinity, dose 0.3 mg/kg, route oral; conditions: plasma
[8] = AUC (infinity) in male Wistar rat at 10 mg/kg, po; format: ADME, organism-based; parameters: time infinity, dose 10 mg/kg, route oral; conditions: plasma
[9] = Tmax in fed cynomolgus monkey at 03 mg/kg, po; format: ADME, organism-based, Macaca fascicularis; parameters: dose 3 mg/kg, route oral; conditions: in vivo, 3 mg/kg
[10] = Tmax in male Wistar rat at 10 mg/kg, po; format: ADME, organism-based; parameters: dose 10 mg/kg, route oral; conditions: in vivo
[11] = Cmax in fasted cynomolgus monkey at 0.3 mg/kg, po; format: ADME, organism-based, Macaca fascicularis; parameters: dose 0.3 mg/kg, route oral; conditions: in vivo
[12] = Oral bioavailability in male Wistar rat at 10 mg/kg; format: ADME, organism-based; conditions: in vivo
[13] = Oral bioavailability in fed cynomolgus monkey at 0.3 mg/kg; format: ADME, organism-based, Macaca fascicularis; conditions: in vivo
[14] = Cmax in male Wistar rat at 10 mg/kg, po; format: ADME, organism-based; parameters: dose 10 mg/kg, route oral; conditions: in vivo
[15] = Tmax in fasted cynomolgus monkey at 03 mg/kg, po; format: ADME, organism-based, Macaca fascicularis; parameters: dose 3 mg/kg, route oral; conditions: in vivo, 3 mg/kg
[16] = AUC (infinity) in fed cynomolgus monkey at 0.3 mg/kg, po; format: ADME, organism-based, Macaca fascicularis; parameters: time infinity, dose 0.3 mg/kg, route oral; conditions: plasma
[17] = system: Plasma; test: Plasma concentration in male Sprague-Dawley rat at 0.3 mg/ml, po; format: ADME
[18] = Cmax in fed cynomolgus monkey at 0.3 mg/kg, po; format: ADME, organism-based, Macaca fascicularis; parameters: dose 0.3 mg/kg, route oral; conditions: in vivo
[19] = Tmax in male Wistar rat at 7 mg/kg, po; format: ADME, organism-based; parameters: dose 7 mg/kg, route oral; conditions: in vivo
[20] = Cmax in male Wistar rat at 7 mg/kg, po; format: ADME, organism-based; parameters: dose 7 mg/kg, route oral; conditions: in vivo
[21] = AUC (infinity) in male Wistar rat at 7 mg/kg, po; format: ADME, organism-based; parameters: time infinity, dose 7 mg/kg, route oral; conditions: plasma
[22] = Volume of distribution at steady state in male Wistar rat at 2 mg/kg, iv; format: ADME, organism-based; parameters: dose 2 mg/kg, route intravenous; conditions: in vivo, read-out: Vdss
[23] = Oral bioavailability in male Wistar rat at 7 mg/kg; format: ADME, organism-based; conditions: in vivo
[24] = system: Rattus norvegicus; test: as §1; format: ADME, organism-based; parameters: dose 1 mg/kg, route intravenous; conditions: in vivo

Row | Kp [1] | Kp [4] | AUC(0-inf) [8] [ng·h/mL] | Tmax [10] [h] | bioavailability [12] [%] | Cmax [14] [ng/mL] | Tmax [19] [h] | Cmax [20] [ng/mL] | AUC(0-inf) [21] [ng·h/mL] | Vd [22] [L/kg] | bioavailability [23] [%] | SMILES | other results
1 | 2.9 | 0.06 | 25600 | 6.2 | 91 | 1580 |  |  |  |  |  | Cc1nc(C#Cc2ccnc(Cl)c2)c(C)n1-c1ccc(F)cc1 [BASIMGLURANT] | Cp [2]: 5 ng/mL; bioavailability [3]: 100%; Vd [5]: 5.1 L/kg; Vd [6]: 4 L/kg; AUC(0-inf) [7]: 852 ng·h/mL; Tmax [9]: 2 h; Cmax [11]: 76.5 ng/mL; bioavailability [13]: 54%; Tmax [15]: 1 h; AUC(0-inf) [16]: 298 ng·h/mL; Cp [17]: 37 ng/mL; Cmax [18]: 36.1 ng/mL
2 | 0.4 | 0.02 |  |  |  |  | 1.1 | 1660 | 10500 | 0.8 | 84 | Cc1cc(C#Cc2cn(-c3ccc(F)cc3)c(C)n2)ccn1 | 
3 |  |  |  |  |  |  | 2.3 | 158 | 661 |  | 18 | C(#Cc1ncn2c1COc1ccccc1-2)c1ccccc1 | Vdss [24]: 2.9 L/kg
4 | 2.6 |  | 78900 | 5.5 | 98 | 619 |  |  |  | 11 |  | Cc1nc(C#Cc2ccnc(Cl)c2)c(C)n1-c1ccc(OC(F)(F)F)cc1 | 
